Molecular target: T1, lipoxygenase from soybean (LOX)
T1 construct: gene LOX1.1; such preparations are usually mainly lipoxygenase-1
Test: lipoxygenase inhibition assay, 96-well plate reader
Format: biochemical, Glycine max
Settings: substrate linoleic acid; positive control; μg of standard per mL of the enzyme solution
From the text: lipoxygenase inhibition assay, 96-well plate reader on lipoxygenase from soybean (LOX)

First: C[C@@H]1O[C@@H](OC[C@H]2O[C@@H](Oc3c(-c4ccc(O)c(O)c4)oc4cc(O)cc(O)c4c3=O)[C@H](O)[C@@H](O)[C@@H]2O)[C@H](O)[C@H](O)[C@H]1O [RT, Quercetin 3-O-(6′′-O-α-L-rhamnopyranosyl)-β-D-glucopyranoside]
Second: O=c1c(O)c(-c2ccc(O)c(O)c2)oc2cc(O)cc(O)c12 [QU, quercetin]
The “LOX / IC50 (μg/mL)^a” value of the first is 1.8-fold higher: 162.70 ± 3.70 µg/mL for the first, 89.23 ± 2.13 µg/mL for the second.

Going from `COc1ccc2c(c1)c(CC(=O)O)c(C)n2C(=O)c1ccc(Cl)cc1` [IND, indomethacin] to `O=C(/C=C/c1ccc(O)c(O)c1)O[C@@H]1C[C@](O)(C(=O)O)C[C@@H](O)[C@H]1O` [CHA, 5-O-Caffeoylquinic acid], the “LOX / IC50 (μg/mL)^a” value rises from 92.60 ± 3.71 µg/mL to 166.83 ± 7.15 µg/mL (1.8-fold).
